We go through two sequences from paper PMC10511244 (Nature, 2022).

The subject of this assay is AS4.3, AS8.2, AS8.4, and AU2.1 TCRs. In words: CD69 upregulation with peptide-pulsed K562 cells expressing HLA-B*27:05. The assay is classed as cell-based, human. To be noted: SKW-3 T cells expressing AS4.3, AS8.2, AS8.4, and AU2.1 TCRs; n = 3 biological replicates.

For the sequence GQVMVVAPR [RNASEH2B^self], the “T cell response (CD69 upregulation) when peptide presented by HLA-B*27:05-expressing K562 cells” value was “robust T cell responses”.

With LRQMLQAPH [MPP4^self], the “T cell response (CD69 upregulation) when peptide presented by HLA-B*27:05-expressing K562 cells” value is recorded as “robust T cell responses”.
